Source: patent publication US7186803B2, “Human vanilloid receptor VR3 protein” (Ortho-McNeil Pharmaceutical, Inc., priority 2000, dated 2007)
Entries after “also recorded” stand apart in the source; their conditions may differ.

Tests used:
human VR3 A+B− = biological target: T1, human VR3 A+B− (Homo sapiens, UniProt Q9HBA0, F526I); experiment: Two-electrode voltage clamp of Xenopus oocytes injected with VR3 A+B− cRNA, challenged with ligands; assay type: cell-based; parameters: key: NE: no effect
T1 construct: expressed in transfected cells; host or cells: Xenopus laevis oocytes injected with in vitro transcribed cRNA
Experimental: (§1) Xenopus laevis oocytes were prepared and injected using standard methods previously described and known in the art (Fraser et al., 1993). Ovarian lobes from adult female Xenopus laevis (Nasco, Fort Atkinson, Wis.) were teased apart, rinsed several times in nominally Ca-free saline containing: 82.5 mM NaCl, 2.5 mM KCl, 1 mM MgCl2, 5 mM HEPES, adjusted to pH 7.0 with NaOH (OR-2), and gently shaken in OR-2 containing 0.2% collagenase Type 1 (ICN Biomedicals, Aurora, Ohio) for 2–5 hours. When approximately 50% of the follicular layers were removed, Stage V and VI oocytes were selected and rinsed in media consisting of 75% OR-2 and 25% ND-96. The ND-96 contained: 100 mM NaCl, 2 mM KCl, 1 mM MgCl2, 1.8 mM CaCl2, 5 mM HEPES, 2.5 mM Na pyruvate, gentamicin (50 ug/ml), adjusted to pH 7.0 with NaOH. […] For in vitro transcription, pGEM HE (Liman et al., 1992) containing human VR3 was linearized with NheI and transcribed with T7 RNA polymerase (Promega) in the presence of the cap analog m7G(5′)ppp(5′)G. The synthesized cRNA was precipitated with ammonium acetate and isopropanol, and resuspended in 50 μl nuclease-free water. cRNA was quantified using formaldehyde gels (1% agarose, 1×MOPS , 3% formaldehyde) against 1,2 and 5 μl RNA markers (Gibco BRL, 0.24–9.5 Kb).
(§2) Oocytes were injected with 50 nl of the human VR3 receptor RNA (0.3–5 ng) with or without co-injection of VR1 (2–3 ng). Control oocytes were injected with 50 nl of water. Oocytes were incubated for 1–13 days in ND-96 before analysis for expression of the human VR3. Incubations and collagenase digestion were carried out at room temperature. Injected oocytes were maintained in 48 well cell culture clusters (Costar; Cambridge, Mass.) at 18° C. Whole cell agonist-induced currents were measured 1–14 days after injection with a conventional two-electrode voltage clamp (GeneClamp500, Axon Instruments, Foster City, Calif.) using standard methods previously described and known in the art (Dascal, 1987). The microelectrodes were filled with 3 M KCl, which had resistances of 1 and 2 MΩ. Cells were continuously perfused with ND96 at ˜10 ml/min at room temperature unless indicated. Membrane voltage was clamped at −70 mV unless indicated.
(§3) Oocytes were challenged with a variety of ligands, low pH, and depolarizing as well as hyperpolarizing voltage steps but there were no detectable differences in membrane conductance between human VR3-expressing oocytes and control oocytes [see Table 1]. However, human VR3 injected oocytes had properties that were different from controls in 4 respects. First, injection of VR3 A+B− cRNA caused oocytes to die. […] Second, all three isoforms of VR3 enhanced the heat-induced response (FIG. 10). Third, A+B− co-injection with human VR1 produced a ruthenium red sensitive perfusion-induced current (Iperfusion) (FIG. 11).

human VR3 A−B− = biological target: T2, human VR3 A−B− (Homo sapiens, UniProt Q9HBA0, DEL384-443/F526I); experiment: Two-electrode voltage clamp of Xenopus oocytes injected with VR3 A−B− cRNA, challenged with ligands; assay type: cell-based; conditions: VR3 A−B− 1.5 ng injected per oocyte
T2 construct: expressed in transfected cells; host or cells: Xenopus laevis oocytes injected with in vitro transcribed cRNA
Experimental: When approximately 50% of the follicular layers were removed, Stage V and VI oocytes were selected and rinsed in media consisting of 75% OR-2 and 25% ND-96. The ND-96 contained: 100 mM NaCl, 2 mM KCl, 1 mM MgCl2, 1.8 mM CaCl2, 5 mM HEPES, 2.5 mM Na pyruvate, gentamicin (50 ug/ml), adjusted to pH 7.0 with NaOH.
as §2, with “Whole cell agonist-induced currents were measured 1–14 days after injection with a conventional two-electrode voltage clamp (GeneClamp500, Axon Instruments, Foster City, Calif.) using standard methods previously described and known in the art (Dascal, 1987).” left out

human VR3 A+B+ = biological target: T3, human VR3 A+B+ (Homo sapiens, UniProt Q9HBA0); experiment: Two-electrode voltage clamp of Xenopus oocytes injected with VR3 A+B+ cRNA, challenged with ligands; assay type: cell-based; parameters: key: NE: no effect; conditions: VR3 A+B+ 5 ng injected per oocyte
T3 construct: expressed in transfected cells; host or cells: Xenopus laevis oocytes injected with in vitro transcribed cRNA
Experimental: as §1, §2, §3

VR2 = biological target: T4, VR2 (Rattus norvegicus, UniProt Q9WUD2); conditions: noxious temperatures (>53 deg C.), oocytes and HEK cells, cited from earlier work
T4 construct: host or cells: oocytes and HEK cells (as reported)
T4 sequence (Q9WUD2 1-761): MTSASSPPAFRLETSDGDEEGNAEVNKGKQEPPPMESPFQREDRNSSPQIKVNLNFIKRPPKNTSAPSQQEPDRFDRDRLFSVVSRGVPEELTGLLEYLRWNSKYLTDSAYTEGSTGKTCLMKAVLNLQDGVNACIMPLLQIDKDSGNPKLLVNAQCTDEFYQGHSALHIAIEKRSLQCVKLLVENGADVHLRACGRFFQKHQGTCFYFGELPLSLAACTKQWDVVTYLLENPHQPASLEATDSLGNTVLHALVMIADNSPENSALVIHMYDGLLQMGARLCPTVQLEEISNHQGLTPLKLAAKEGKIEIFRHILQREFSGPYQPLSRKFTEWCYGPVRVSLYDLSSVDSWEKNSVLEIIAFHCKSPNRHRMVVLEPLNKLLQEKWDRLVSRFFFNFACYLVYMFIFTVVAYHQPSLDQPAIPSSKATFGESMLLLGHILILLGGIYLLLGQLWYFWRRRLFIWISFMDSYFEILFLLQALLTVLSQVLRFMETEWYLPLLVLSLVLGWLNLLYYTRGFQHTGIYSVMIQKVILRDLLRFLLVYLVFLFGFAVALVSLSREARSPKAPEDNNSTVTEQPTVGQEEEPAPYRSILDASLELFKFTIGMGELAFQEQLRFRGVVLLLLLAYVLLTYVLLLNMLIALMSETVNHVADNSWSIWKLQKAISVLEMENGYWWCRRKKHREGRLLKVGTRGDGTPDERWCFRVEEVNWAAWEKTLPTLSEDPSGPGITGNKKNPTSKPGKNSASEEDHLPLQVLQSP

[1] = biological target: T5, human VR1 together with human VR3 A+B− (Homo sapiens, UniProt Q8NER1); experiment: Capsaicin induced currents in oocytes expressing human VR1 with human VR3 A+B−; assay type: cell-based; conditions: 1 uM capsaicin; VR1 and VR3 A+B− cRNA at equal ratios (2.9 ng each); holding voltage +50 mV
T5 construct: expressed in transfected cells; host or cells: Xenopus laevis oocytes co-injected with VR1 and VR3 A+B− cRNA (2.9 ng each)
Experimental: as §2, with “Whole cell agonist-induced currents were measured 1–14 days after injection with a conventional two-electrode voltage clamp (GeneClamp500, Axon Instruments, Foster City, Calif.) using standard methods previously described and known in the art (Dascal, 1987).” left out

capsaicin binding site = capsaicin binding site (Rattus norvegicus, UniProt O35433); conditions: cited from earlier work
[2] = 10 uM, VR3 A+B− 3.25–4 ng injected per oocyte (also 0.4 ng)
[3] = 100 uM, VR3 A+B− 3.25–4 ng injected per oocyte
[4] = 1 uM, VR3 A+B− 3.25–4 ng injected per oocyte (also 0.4 ng)

T1 sequence (Q9HBA0 whole entry F526I): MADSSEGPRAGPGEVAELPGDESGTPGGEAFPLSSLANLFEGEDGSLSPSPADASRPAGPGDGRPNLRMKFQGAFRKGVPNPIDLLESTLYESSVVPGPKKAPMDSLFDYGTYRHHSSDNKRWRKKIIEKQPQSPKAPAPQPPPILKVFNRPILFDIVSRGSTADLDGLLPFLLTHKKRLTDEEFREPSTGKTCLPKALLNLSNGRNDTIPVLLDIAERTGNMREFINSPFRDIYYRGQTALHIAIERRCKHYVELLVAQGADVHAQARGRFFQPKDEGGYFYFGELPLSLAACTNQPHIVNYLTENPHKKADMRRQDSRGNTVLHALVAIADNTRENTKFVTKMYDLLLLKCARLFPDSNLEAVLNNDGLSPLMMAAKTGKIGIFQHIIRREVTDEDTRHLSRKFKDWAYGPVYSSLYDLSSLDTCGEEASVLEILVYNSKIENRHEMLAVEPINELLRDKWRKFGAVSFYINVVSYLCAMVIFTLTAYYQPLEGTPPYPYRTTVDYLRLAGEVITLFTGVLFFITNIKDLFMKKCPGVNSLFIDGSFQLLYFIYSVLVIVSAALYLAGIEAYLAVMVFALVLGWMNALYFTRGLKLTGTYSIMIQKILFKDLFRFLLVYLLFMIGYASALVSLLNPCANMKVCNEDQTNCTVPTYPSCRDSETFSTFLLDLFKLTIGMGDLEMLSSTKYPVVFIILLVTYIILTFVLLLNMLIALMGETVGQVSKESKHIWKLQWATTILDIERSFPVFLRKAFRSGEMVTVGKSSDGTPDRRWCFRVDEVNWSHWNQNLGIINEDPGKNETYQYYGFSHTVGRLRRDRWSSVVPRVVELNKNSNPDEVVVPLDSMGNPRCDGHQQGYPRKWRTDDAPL
T2 sequence (Q9HBA0 with tags, fused parts or gaps DEL384-443/F526I): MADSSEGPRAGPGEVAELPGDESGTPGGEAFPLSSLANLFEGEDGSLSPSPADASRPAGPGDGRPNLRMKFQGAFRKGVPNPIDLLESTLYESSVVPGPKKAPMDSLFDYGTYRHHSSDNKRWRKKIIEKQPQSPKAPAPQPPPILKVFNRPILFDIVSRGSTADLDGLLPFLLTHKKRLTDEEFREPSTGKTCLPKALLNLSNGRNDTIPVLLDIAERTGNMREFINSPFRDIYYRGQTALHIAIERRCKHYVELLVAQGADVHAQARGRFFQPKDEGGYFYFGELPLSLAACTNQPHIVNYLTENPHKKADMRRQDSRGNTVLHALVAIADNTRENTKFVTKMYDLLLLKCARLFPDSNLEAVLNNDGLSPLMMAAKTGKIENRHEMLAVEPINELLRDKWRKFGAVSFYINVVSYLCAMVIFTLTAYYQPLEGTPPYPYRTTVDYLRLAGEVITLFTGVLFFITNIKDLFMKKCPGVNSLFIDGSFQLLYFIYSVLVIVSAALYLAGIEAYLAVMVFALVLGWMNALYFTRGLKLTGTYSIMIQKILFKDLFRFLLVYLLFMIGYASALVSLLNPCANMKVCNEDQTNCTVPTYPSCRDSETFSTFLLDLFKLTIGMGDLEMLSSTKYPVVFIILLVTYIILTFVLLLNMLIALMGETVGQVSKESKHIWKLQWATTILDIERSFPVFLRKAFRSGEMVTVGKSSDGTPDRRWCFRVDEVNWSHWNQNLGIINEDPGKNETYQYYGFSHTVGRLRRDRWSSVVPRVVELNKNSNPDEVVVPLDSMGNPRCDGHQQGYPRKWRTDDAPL
T3 sequence (Q9HBA0 with tags, fused parts or gaps): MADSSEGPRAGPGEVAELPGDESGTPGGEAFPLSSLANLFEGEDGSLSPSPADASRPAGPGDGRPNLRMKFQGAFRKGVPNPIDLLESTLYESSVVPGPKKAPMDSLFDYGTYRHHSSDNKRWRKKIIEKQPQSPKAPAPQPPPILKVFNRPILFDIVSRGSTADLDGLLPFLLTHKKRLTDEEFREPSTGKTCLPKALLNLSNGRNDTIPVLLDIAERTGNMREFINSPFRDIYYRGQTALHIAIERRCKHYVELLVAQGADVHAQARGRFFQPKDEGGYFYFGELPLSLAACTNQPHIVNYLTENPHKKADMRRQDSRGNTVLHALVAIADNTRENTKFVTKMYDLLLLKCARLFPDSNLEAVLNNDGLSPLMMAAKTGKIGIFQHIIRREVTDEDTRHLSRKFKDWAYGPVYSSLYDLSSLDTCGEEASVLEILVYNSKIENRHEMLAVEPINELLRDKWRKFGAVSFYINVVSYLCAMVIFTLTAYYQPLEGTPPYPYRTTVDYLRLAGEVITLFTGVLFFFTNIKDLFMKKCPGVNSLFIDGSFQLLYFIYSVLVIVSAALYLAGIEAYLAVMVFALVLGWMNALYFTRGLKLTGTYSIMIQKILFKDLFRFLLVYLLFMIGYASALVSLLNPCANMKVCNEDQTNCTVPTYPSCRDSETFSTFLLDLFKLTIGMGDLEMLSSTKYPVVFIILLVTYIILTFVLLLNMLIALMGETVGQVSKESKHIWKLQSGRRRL
T5 sequence (Q8NER1 whole entry): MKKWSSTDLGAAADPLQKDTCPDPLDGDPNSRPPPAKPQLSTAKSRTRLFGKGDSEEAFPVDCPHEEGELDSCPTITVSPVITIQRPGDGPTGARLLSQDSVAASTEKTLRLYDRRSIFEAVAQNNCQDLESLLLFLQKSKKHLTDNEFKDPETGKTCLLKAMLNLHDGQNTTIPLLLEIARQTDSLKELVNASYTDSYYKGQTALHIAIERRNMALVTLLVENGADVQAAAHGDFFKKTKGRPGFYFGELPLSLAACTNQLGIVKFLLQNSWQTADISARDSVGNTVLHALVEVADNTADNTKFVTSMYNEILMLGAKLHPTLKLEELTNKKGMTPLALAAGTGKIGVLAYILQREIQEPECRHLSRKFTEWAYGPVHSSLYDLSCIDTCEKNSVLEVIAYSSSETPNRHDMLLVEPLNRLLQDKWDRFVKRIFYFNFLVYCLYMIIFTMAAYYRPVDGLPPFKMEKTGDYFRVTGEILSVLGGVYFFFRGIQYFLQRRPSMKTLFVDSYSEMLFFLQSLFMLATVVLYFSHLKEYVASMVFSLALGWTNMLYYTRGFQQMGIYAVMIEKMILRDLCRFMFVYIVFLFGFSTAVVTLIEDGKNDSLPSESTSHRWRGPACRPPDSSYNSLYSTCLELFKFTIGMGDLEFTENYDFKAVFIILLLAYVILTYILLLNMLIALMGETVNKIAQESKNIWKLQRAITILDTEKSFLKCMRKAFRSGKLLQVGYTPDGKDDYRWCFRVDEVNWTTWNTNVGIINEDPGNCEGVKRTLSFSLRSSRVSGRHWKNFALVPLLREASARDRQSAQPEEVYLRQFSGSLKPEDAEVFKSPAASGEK
Sequence of capsaicin binding site (O35433 whole entry): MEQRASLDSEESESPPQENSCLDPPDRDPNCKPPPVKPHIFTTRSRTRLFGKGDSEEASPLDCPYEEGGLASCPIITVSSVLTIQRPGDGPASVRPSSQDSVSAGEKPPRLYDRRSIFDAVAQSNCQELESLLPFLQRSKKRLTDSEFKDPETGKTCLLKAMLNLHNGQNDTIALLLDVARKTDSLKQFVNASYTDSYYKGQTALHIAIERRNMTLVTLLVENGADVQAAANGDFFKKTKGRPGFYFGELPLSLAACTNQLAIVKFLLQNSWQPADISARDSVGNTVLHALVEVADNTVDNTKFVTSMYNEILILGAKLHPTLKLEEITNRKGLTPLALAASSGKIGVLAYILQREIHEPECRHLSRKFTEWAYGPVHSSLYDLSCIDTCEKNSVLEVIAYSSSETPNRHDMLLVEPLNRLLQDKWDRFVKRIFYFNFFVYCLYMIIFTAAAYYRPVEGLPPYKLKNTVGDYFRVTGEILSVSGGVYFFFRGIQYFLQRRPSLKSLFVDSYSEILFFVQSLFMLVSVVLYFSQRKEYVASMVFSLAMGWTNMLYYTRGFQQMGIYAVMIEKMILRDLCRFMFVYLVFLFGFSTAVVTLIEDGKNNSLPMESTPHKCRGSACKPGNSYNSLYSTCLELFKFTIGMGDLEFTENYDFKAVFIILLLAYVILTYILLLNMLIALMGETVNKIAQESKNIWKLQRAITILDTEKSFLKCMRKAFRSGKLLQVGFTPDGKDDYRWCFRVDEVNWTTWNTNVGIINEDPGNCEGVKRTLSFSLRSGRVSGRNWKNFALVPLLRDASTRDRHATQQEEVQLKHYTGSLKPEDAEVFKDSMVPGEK

For `CCCCC/C=C\C/C=C\C/C=C\C/C=C\CCCC(=O)NCCO` [Anandamide], the “Effect of stimulus on membrane conductance vs control oocytes” value (shortened to “Effect of stimulus … vs control oocytes”) (human VR3 A+B−; 1.15 uM, VR3 A+B− 0.4 ng injected) was “NE: n = 3 (0.4 ng” and the “Effect of stimulus … vs control oocytes” value (human VR3 A−B−; 1.15 uM) was “NE: n = 1”.

With `CCCCCCCC/C=C\CCCCCCCC(=O)NCc1ccc(O)c(OC)c1` [Olvanil] the “Effect of stimulus … vs control oocytes” value (human VR3 A+B−; [2]) was “NE: n = 3 (n = 1 0.4 ng)”, the “Effect of stimulus … vs control oocytes” value (human VR3 A−B−; 10 uM) was “NE: n = 3” and the “Effect of stimulus … vs control oocytes” value (human VR3 A+B+; 10 uM) was “NE: n = 3”.

In the case of `N.N.N.N.N.N.N.N.N.N.N.N.N.N.[Cl-].[Cl-].[Cl-].[Cl-].[Cl-].[Cl-].[O-2].[O-2].[Ru+3].[Ru+3].[Ru+4]` [ruthenium red], the “Block of the VR2 heat response” value (VR2; 10 μM ruthenium red) is listed as “nearly completely blocked”.

In the case of `C=CCc1ccc(O)c(OC)c1` [Eugenol], the “Effect of stimulus … vs control oocytes” value (human VR3 A+B−; [2]) is reported as “NE: n = 3 (n = 3 0.4 ng)”, the “Effect of stimulus … vs control oocytes” value (human VR3 A−B−; 10 uM) is reported as “NE: n = 3” and the “Effect of stimulus … vs control oocytes” value (human VR3 A+B+; 10 uM) is reported as “NE: n = 3”.

With `CCCCC[C@H](O)CC(=O)CCc1ccc(O)c(OC)c1` [Gingerol] the “Effect of stimulus … vs control oocytes” value (human VR3 A+B−; [2]) was “NE: n = 3 (n = 1 0.4 ng)”, the “Effect of stimulus … vs control oocytes” value (human VR3 A−B−; 10 uM) was “NE: n = 3” and the “Effect of stimulus … vs control oocytes” value (human VR3 A+B+; 10 uM) was “NE: n = 3”.

For `COc1ccccc1O` [Guiaicol], the “Effect of stimulus … vs control oocytes” value (human VR3 A+B−; [2]) was “NE: n = 3 (n = 1 0.4 ng)”, the “Effect of stimulus … vs control oocytes” value (human VR3 A−B−; 10 uM) was “NE: n = 3” and the “Effect of stimulus … vs control oocytes” value (human VR3 A+B+; 10 uM) was “NE: n = 3”.

For `O=C(O)CCCO` [γ-hydroxybutyrate], the “Effect of stimulus … vs control oocytes” value (human VR3 A+B−; [3]) was “NE: n = 2”.

In the case of `CCCCC/C=C\C/C=C\C/C=C\C/C=C\CCCC(=O)O` [Arachadonic acid], the “Effect of stimulus … vs control oocytes” value (human VR3 A−B−; 10 uM) is reported as “NE: n = 3”.

In the case of `NCCc1ccccc1` [β-phenylethylamine], the “Effect of stimulus … vs control oocytes” value (human VR3 A+B−; [3]) is reported as “NE: n = 2”.

With `COc1cc(CNC(=O)CCCCC=CC(C)C)ccc1O` [Capsaicin, 8-methyl-N-vanillyl-6-nonenamide] the “Effect of stimulus … vs control oocytes” value (human VR3 A+B−; [4]) was “NE: n = 3 (n = 3 0.4 ng)”, the “Effect of stimulus … vs control oocytes” value (human VR3 A−B−; 1 uM) was “NE: n = 3” and the “Effect of stimulus … vs control oocytes” value (human VR3 A+B+; 1 uM) was “NE: n = 3”. For the same compound, the “Response to capsaicin when VR1 is co-expressed with VR3 A+B−, compared with VR1 alone” value [1] was “altered the responsiveness; also recorded: diminished”.

With `C=C(C)[C@]12C[C@@H](C)[C@@]34O[C@](Cc5ccccc5)(O[C@@H]1[C@@H]3C=C(COC(=O)Cc1ccc(O)c(OC)c1)C[C@]1(O)C(=O)C(C)=C[C@@H]41)O2` [Resiniferatoxin, resiniferatoxin] the “Effect of stimulus … vs control oocytes” value (human VR3 A+B−; [4]) was “NE: n = 3 (n = 1 0.4 ng)”, the “Effect of stimulus … vs control oocytes” value (human VR3 A−B−; 1 uM) was “NE: n = 3” and the “Effect of stimulus … vs control oocytes” value (human VR3 A+B+; 1 uM) was “NE: n = 3”. The “Binding affinity at the capsaicin binding site” value (capsaicin binding site) was “nanomolar affinity”.

In the case of `Oc1cc2c(cc1O)CN(C(=S)NCCc1ccc(Cl)cc1)CCC2` [CPZ, capsazepine], the “Sensitivity of the VR2 heat response to CPZ” value (VR2) is given as “not sensitive”.
